System: ATF4 luciferase reporter (human full-length ATF4 5'-UTR fused to firefly luciferase) in HEK293T cells
Assay: ATF4-Luc assay (in vitro model of VWMD): HEK293T cells carrying ATF4 luciferase reporter, tunicamycin-treated
Format: cell-based
Settings: Homo sapiens, HEK-293T, 1 μg/mL tunicamycin, 7 hours, One Glo luminescence
Method in brief: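 Stable HEK293T line with human ATF4 5′-UTR–firefly luciferase reporter treated with 1 μg/mL tunicamycin plus 200 nM compound for 7 h. Luminescence read; EC50 derived.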

SMILES | EC50 [nM]
O=C(NC12CCC(NC(=O)[C@H]3C[C@@H](O)c4cc(Cl)ccc4O3)(C1)C2)c1ccc(OC(F)(F)F)cn1 [Compound 373, N-(4-{[(2R,4R)-6-chloro-4-hydroxy-3,4-dihydro-2H-1-benzopyran-2-carbonyl]amino}bicyclo[2.1.1]hexan-1-yl)-5-(trifluoromethoxy)pyridine-2-carboxamide] | 10 to 50
O=C(NC12CCC(NC(=O)[C@H]3C[C@@H](O)c4cc(Cl)ccc4O3)(C1)C2)c1ccc(C(F)(F)F)cc1 [Compound 374, (2R,4R)-6-chloro-4-hydroxy-N-{4-[4-(trifluoromethyl)benzamido]bicyclo[2.1.1]hexan-1-yl}-3,4-dihydro-2H-1-benzopyran-2-carboxamide] | 250 to 500
O=C(COc1ccc(Cl)c(F)c1)N[C@@H]1C[C@@H]2O[C@H]1C[C@H]2NC(=O)[C@H]1C[C@@H](O)c2cc(Cl)ccc2O1 [Compound 375, (2R,4R)-6-chloro-N-{(1S,2R,4S,5R)-5-[2-(4-chloro-3-fluorophenoxy)acetamido]-7-oxabicyclo[2.2.1]heptan-2-yl}-4-hydroxy-3,4-dihydro-2H-1-benzopyran-2-carboxamide] | < 10
O=C(NC12CC(NC(=O)[C@H]3C[C@@H](O)c4cc(Cl)ccc4O3)(C1)C2)c1ccc(OC(F)(F)F)cn1 [Compound 376, N-(3-{[(2R,4R)-6-chloro-4-hydroxy-3,4-dihydro-2H-1-benzopyran-2-carbonyl]amino}bicyclo[1.1.1]pentan-1-yl)-5-(trifluoromethoxy)pyridine-2-carboxamide] | 10 to 50
O=C(NC12CC(NC(=O)[C@H]3C[C@@H](O)c4cc(Cl)ccc4O3)(C1)C2)c1ccc(OC(F)(F)F)nc1 [Compound 377, N-(3-{[(2R,4R)-6-chloro-4-hydroxy-3,4-dihydro-2H-1-benzopyran-2-carbonyl]amino}bicyclo[1.1.1]pentan-1-yl)-6-(trifluoromethoxy)pyridine-3-carboxamide] | 50 to 250
O=C(NC12CC(NC(=O)[C@H]3C[C@@H](O)c4cc(Cl)ccc4O3)(C1)C2)c1ccc(Cl)c(F)c1 [Compound 378, (2R,4R)-6-chloro-N-[3-(4-chloro-3-fluorobenzamido)bicyclo[1.1.1]pentan-1-yl]-4-hydroxy-3,4-dihydro-2H-1-benzopyran-2-carboxamide] | 50 to 250
O=C(NC12CC(NC(=O)[C@H]3CC(=O)c4cc(Cl)ccc4O3)(C1)C2)c1ccc(OC(F)(F)F)cn1 [Compound 379, N-(3-{[(2R)-6-chloro-4-oxo-3,4-dihydro-2H-1-benzopyran-2-carbonyl]amino}bicyclo[1.1.1]pentan-1-yl)-5-(trifluoromethoxy)pyridine-2-carboxamide] | 500 to 2000
O=C(NC12CC(NC(=O)[C@H]3C[C@@H](O)c4cc(Cl)ccc4O3)(C1)C2)c1cnn([C@H]2C[C@@H](OC(F)(F)F)C2)c1 [Compound 381, N-(3-{[(2R,4R)-6-chloro-4-hydroxy-3,4-dihydro-2H-1-benzopyran-2-carbonyl]amino}bicyclo[1.1.1]pentan-1-yl)-1-[cis-3-(trifluoromethoxy)cyclobutyl]-1H-pyrazole-4-carboxamide] | < 10
Cc1cnc(C(=O)NC23CC(NC(=O)[C@H]4C[C@@H](O)c5cc(Cl)ccc5O4)(C2)C3)cn1 [Compound 382, N-(3-{[(2R,4R)-6-chloro-4-hydroxy-3,4-dihydro-2H-1-benzopyran-2-carbonyl]amino}bicyclo[1.1.1]pentan-1-yl)-5-methylpyrazine-2-carboxamide] | 50 to 250
O=C(NC12CC(NC(=O)[C@H]3C[C@@H](O)c4cc(Cl)ccc4O3)(C1)C2)c1cnc(C2CC2)o1 [Compound 383, N-(3-{[(2R,4R)-6-chloro-4-hydroxy-3,4-dihydro-2H-1-benzopyran-2-carbonyl]amino}bicyclo[1.1.1]pentan-1-yl)-2-cyclopropyl-1,3-oxazole-5-carboxamide] | 50 to 250
CCc1ncc(C(=O)NC23CC(NC(=O)[C@H]4C[C@@H](O)c5cc(Cl)ccc5O4)(C2)C3)o1 [Compound 384, N-(3-{[(2R,4R)-6-chloro-4-hydroxy-3,4-dihydro-2H-1-benzopyran-2-carbonyl]amino}bicyclo[1.1.1]pentan-1-yl)-2-ethyl-1,3-oxazole-5-carboxamide] | 50 to 250
Cc1ncc(C(=O)NC23CC(NC(=O)[C@H]4C[C@@H](O)c5cc(Cl)ccc5O4)(C2)C3)s1 [Compound 385, N-(3-{[(2R,4R)-6-chloro-4-hydroxy-3,4-dihydro-2H-1-benzopyran-2-carbonyl]amino}bicyclo[1.1.1]pentan-1-yl)-2-methyl-1,3-thiazole-5-carboxamide] | 50 to 250
O=C(NC12CC(NC(=O)[C@H]3C[C@@H](O)c4cc(Cl)ccc4O3)(C1)C2)c1ccccn1 [Compound 386, N-(3-{[(2R,4R)-6-chloro-4-hydroxy-3,4-dihydro-2H-1-benzopyran-2-carbonyl]amino}bicyclo[1.1.1]pentan-1-yl)pyridine-2-carboxamide] | 50 to 250
O=C(NC12CC(NC(=O)[C@H]3C[C@@H](O)c4cc(Cl)ccc4O3)(C1)C2)c1cnc(C2CCC2)o1 [Compound 387, N-(3-{[(2R,4R)-6-chloro-4-hydroxy-3,4-dihydro-2H-1-benzopyran-2-carbonyl]amino}bicyclo[1.1.1]pentan-1-yl)-2-cyclobutyl-1,3-oxazole-5-carboxamide] | 50 to 250
O=C(NC12CC(NC(=O)[C@H]3C[C@@H](O)c4cc(Cl)ccc4O3)(C1)C2)c1cnc(C2CN(CC(F)(F)F)C2)o1 [Compound 388, N-(3-{[(2R,4R)-6-chloro-4-hydroxy-3,4-dihydro-2H-1-benzopyran-2-carbonyl]amino}bicyclo[1.1.1]pentan-1-yl)-2-[1-(2,2,2-trifluoroethyl)azetidin-3-yl]-1,3-oxazole-5-carboxamide] | 250 to 500
O=C(NC12CC(NC(=O)[C@H]3C[C@@H](O)c4cc(Cl)ccc4O3)(C1)C2)c1cnc(C2CNC2)o1 [Compound 389, 2-(azetidin-3-yl)-N-(3-{[(2R,4R)-6-chloro-4-hydroxy-3,4-dihydro-2H-1-benzopyran-2-carbonyl]amino}bicyclo[1.1.1]pentan-1-yl)-1,3-oxazole-5-carboxamide] | > 2000
O=C(NC12CC(NC(=O)[C@H]3C[C@@H](O)c4cc(Cl)ccc4O3)(C1)C2)c1cnn(-c2ccccc2)c1 [Compound 390, N-(3-{[(2R,4R)-6-chloro-4-hydroxy-3,4-dihydro-2H-1-benzopyran-2-carbonyl]amino}bicyclo[1.1.1]pentan-1-yl)-1-phenyl-1H-pyrazole-4-carboxamide] | 10 to 50
O=C(NC12CC(NC(=O)[C@H]3C[C@@H](O)c4cc(Cl)ccc4O3)(C1)C2)c1cnn(-c2ccc(Cl)c(F)c2)c1 [Compound 391, 1-(4-chloro-3-fluorophenyl)-N-(3-{[(2R,4R)-6-chloro-4-hydroxy-3,4-dihydro-2H-1-benzopyran-2-carbonyl]amino}bicyclo[1.1.1]pentan-1-yl)-1H-pyrazole-4-carboxamide] | < 10
O=C(NC12CC(NC(=O)[C@H]3C[C@@H](O)c4cc(Cl)ccc4O3)(C1)C2)c1cnn(-c2ccc(C(F)(F)F)nc2)c1 [Compound 392, N-(3-{[(2R,4R)-6-chloro-4-hydroxy-3,4-dihydro-2H-1-benzopyran-2-carbonyl]amino}bicyclo[1.1.1]pentan-1-yl)-1-[6-(trifluoromethyl)pyridin-3-yl]-1H-pyrazole-4-carboxamide] | 500 to 2000

From US20240018133A1, “MODULATORS OF THE INTEGRATED STRESS PATHWAY” (Calico Life Sciences LLC, priority 2019, published 2024)
